Assay results as given in patent publication US6914045B2, “Glycopeptide antibiotics” (Wyeth Holdings Corporation, priority 2001, dated 2005).
Converted amounts (≈) assume the structure as drawn.

What was measured:
Test in all cases: in vitro antibacterial evaluation, MIC by broth dilution
Type in all cases: cell-based
Enterococcus sp. = details: broth dilution, 18 hours at 35° C.; for MIC Enterococcus faecalis (ATCC 29212): strain ATCC 29212; for MIC Enterococcus faecalis (GC 2242): strain GC 2242; for MIC Enterococcus faecium (GC 2243): strain GC 2243; for MIC Enterococcus faecalis (GC 2691): strain GC 2691; for MIC Enterococcus faecalis (GC 3059): strain GC 3059; for MIC Enterococcus faecalis (GC 4552): strain GC 4552; for MIC Enterococcus faecalis (GC 4553): strain GC 4553; for MIC Enterococcus faecalis (GC 4554): strain GC 4554; for MIC Enterococcus faecium (GC 4556): strain GC 4556; for MIC Enterococcus faecium (GC 4557): strain GC 4557; for MIC Enterococcus avium (GC 4558): strain GC 4558; for MIC Enterococcus faecalis (GC 6189): strain GC 6189
How it was run: (§1)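 Broth dilution per NCCLS standard M7-A2 in Muller-Hinton II […], with an inoculum of 5×10^5 CFU/mL and antibiotic spanning 64-0.06 μg/mL. The MIC is the lowest concentration that inhibits growth of the organism.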

Streptococcus sp. = details: broth dilution, 18 hours at 35° C.; for MIC Streptococcus pneumoniae (ATCC 6301): strain ATCC 6301; for MIC Streptococcus pneumoniae (GC 1894): strain GC 1894; for MIC Streptococcus pyogenes (GC 4563): strain GC 4563; for MIC Streptococcus agalactiae (GC 4564): strain GC 4564; for MIC Streptococcus pneumoniae (GC 4565): strain GC 4565
How it was run: as §1

Staphylococcus sp. = details: broth dilution, 18 hours at 35° C.; for MIC Staphylococcus aureus (GC 1131): strain GC 1131
How it was run: as §1

Escherichia coli = test system: Escherichia coli
How it was run: as §1

MIC Enterococcus faecalis (ATCC 29212) (Enterococcus sp.; inoculum 5×10^5 CFU/mL): 16 µg/mL (≈ 10.9 µM)
MIC Enterococcus faecalis (GC 2242) (Enterococcus sp.; inoculum 5×10^5 CFU/mL): 16 µg/mL (≈ 10.9 µM)
MIC Enterococcus faecium (GC 2243) (Enterococcus sp.; inoculum 5×10^5 CFU/mL): 16 µg/mL (≈ 10.9 µM)
MIC Enterococcus faecalis (GC 2691) (Enterococcus sp.; inoculum 5×10^5 CFU/mL): 16 µg/mL (≈ 10.9 µM)
MIC Enterococcus faecalis (GC 3059) (Enterococcus sp.; inoculum 5×10^5 CFU/mL): 16 µg/mL (≈ 10.9 µM)
MIC Enterococcus faecalis (GC 4552) (Enterococcus sp.; inoculum 5×10^5 CFU/mL): 16 µg/mL (≈ 10.9 µM)
MIC Enterococcus faecalis (GC 4553) (Enterococcus sp.; inoculum 5×10^5 CFU/mL): 16 µg/mL (≈ 10.9 µM)
MIC Enterococcus faecalis (GC 4554) (Enterococcus sp.; inoculum 5×10^5 CFU/mL): 32 µg/mL (≈ 21.8 µM)
MIC Enterococcus faecium (GC 4556) (Enterococcus sp.; inoculum 5×10^5 CFU/mL): 16 µg/mL (≈ 10.9 µM)
MIC Enterococcus faecium (GC 4557) (Enterococcus sp.; inoculum 5×10^5 CFU/mL): 16 µg/mL (≈ 10.9 µM)
MIC Enterococcus avium (GC 4558) (Enterococcus sp.; inoculum 5×10^5 CFU/mL): 16 µg/mL (≈ 10.9 µM)
MIC Enterococcus faecalis (GC 6189) (Enterococcus sp.; inoculum 5×10^5 CFU/mL): 16 µg/mL (≈ 10.9 µM)
MIC Enterococcus faecalis (ATCC 29212) (Enterococcus sp.): 16 µg/mL (≈ 10.9 µM)
MIC Enterococcus faecalis (GC 2242) (Enterococcus sp.): 16 µg/mL (≈ 10.9 µM)
MIC Enterococcus faecium (GC 2243) (Enterococcus sp.): 16 µg/mL (≈ 10.9 µM)
MIC Enterococcus faecalis (GC 2691) (Enterococcus sp.): 16 µg/mL (≈ 10.9 µM)
MIC Enterococcus faecalis (GC 3059) (Enterococcus sp.): 16 µg/mL (≈ 10.9 µM)
MIC Enterococcus faecalis (GC 4552) (Enterococcus sp.): 16 µg/mL (≈ 10.9 µM)
MIC Enterococcus faecalis (GC 4553) (Enterococcus sp.): 16 µg/mL (≈ 10.9 µM)
MIC Enterococcus faecalis (GC 4554) (Enterococcus sp.): 32 µg/mL (≈ 21.8 µM)
MIC Enterococcus faecium (GC 4556) (Enterococcus sp.): 16 µg/mL (≈ 10.9 µM)
MIC Enterococcus faecium (GC 4557) (Enterococcus sp.): 16 µg/mL (≈ 10.9 µM)
MIC Enterococcus avium (GC 4558) (Enterococcus sp.): 16 µg/mL (≈ 10.9 µM)
MIC Enterococcus faecalis (GC 6189) (Enterococcus sp.): 16 µg/mL (≈ 10.9 µM)
MIC Streptococcus pneumoniae (ATCC 6301) (Streptococcus sp.; inoculum 5×10^5 CFU/mL): 0.12 µg/mL (≈ 0.0818 µM)
MIC Streptococcus pneumoniae (GC 1894) (Streptococcus sp.; inoculum 5×10^5 CFU/mL): <0.06 µg/mL
MIC Streptococcus pyogenes (GC 4563) (Streptococcus sp.; inoculum 5×10^5 CFU/mL): 0.12 µg/mL (≈ 0.0818 µM)
MIC Streptococcus agalactiae (GC 4564) (Streptococcus sp.; inoculum 5×10^5 CFU/mL): 1 µg/mL (≈ 0.681 µM)
MIC Streptococcus pneumoniae (GC 4565) (Streptococcus sp.; inoculum 5×10^5 CFU/mL): 0.12 µg/mL (≈ 0.0818 µM)
MIC Streptococcus pneumoniae (ATCC 6301) (Streptococcus sp.): 0.12 µg/mL (≈ 0.0818 µM)
MIC Streptococcus pneumoniae (GC 1894) (Streptococcus sp.): <0.06 µg/mL
MIC Streptococcus pyogenes (GC 4563) (Streptococcus sp.): 0.12 µg/mL (≈ 0.0818 µM)
MIC Streptococcus agalactiae (GC 4564) (Streptococcus sp.): 1 µg/mL (≈ 0.681 µM)
MIC Streptococcus pneumoniae (GC 4565) (Streptococcus sp.): 0.12 µg/mL (≈ 0.0818 µM)
MIC Staphylococcus aureus (GC 1131) (Staphylococcus sp.; inoculum 5×10^5 CFU/mL): 16 µg/mL (≈ 10.9 µM)
MIC Staphylococcus aureus (ATCC 29213) (Staphylococcus sp.; strain ATCC 29213): 16 µg/mL (≈ 10.9 µM)
MIC Staphylococcus aureus (GC 1131) (Staphylococcus sp.): 16 µg/mL (≈ 10.9 µM)
MIC Staphylococcus aureus (GC 3051) (Staphylococcus sp.; strain GC 3051): 32 µg/mL (≈ 21.8 µM)
MIC Staphylococcus aureus (GC 3053) (Staphylococcus sp.; strain GC 3053): 16 µg/mL (≈ 10.9 µM)
MIC Staphylococcus aureus (GC 4541) (Staphylococcus sp.; strain GC 4541): 16 µg/mL (≈ 10.9 µM)
MIC Staphylococcus aureus (GC 4542) (Staphylococcus sp.; strain GC 4542): 16 µg/mL (≈ 10.9 µM)
MIC Staphylococcus aureus-SMITH (GC 4543) (Staphylococcus sp.; strain GC 4543): 16 µg/mL (≈ 10.9 µM)
MIC Staphylococcus aureus (GC 4544) (Staphylococcus sp.; strain GC 4544): 16 µg/mL (≈ 10.9 µM)
MIC Staphylococcus aureus (GC 4545) (Staphylococcus sp.; strain GC 4545): 16 µg/mL (≈ 10.9 µM)
MIC Coagulase Negative Staphylococcus (GC 4547) (Staphylococcus sp.; strain GC 4547): 16 µg/mL (≈ 10.9 µM)
MIC Coagulase Negative Staphylococcus (GC 4548) (Staphylococcus sp.; strain GC 4548): 8 µg/mL (≈ 5.45 µM)
MIC Coagulase Negative Staphylococcus (GC 4549) (Staphylococcus sp.; strain GC 4549): 8 µg/mL (≈ 5.45 µM)
MIC Coagulase Negative Staphylococcus (GC 4551) (Staphylococcus sp.; strain GC 4551): 16 µg/mL (≈ 10.9 µM)
MIC Coagulase Negative Staphylococcus (GC 6257) (Staphylococcus sp.; strain GC 6257): 8 µg/mL (≈ 5.45 µM)
MIC Staphylococcus aureus-SMITH (GC 4543) (Staphylococcus sp.; strain SMITH GC 4543): 16 µg/mL (≈ 10.9 µM)
MIC Escherichia coli (ATCC 25922) (Escherichia coli; strain ATCC 25922, 18 hours at 35° C.): >64 µg/mL
MIC Escherichia coli (GC 4559) (Escherichia coli; strain GC 4559, 18 hours at 35° C.): >64 µg/mL
MIC Escherichia coli (GC 4560) (Escherichia coli; strain GC 4560, 18 hours at 35° C.): 16 µg/mL (≈ 10.9 µM)
Structure (SMILES): CC(C)=CCOc1cccc(C2OCC3OC(OC4C(CO)OC(Oc5ccc(CC6NC(=O)C(C(C)c7ccccc7)NC(=O)CNC(=O)C(CO)NC(=O)C(C(O)C7CNC(=N)N7C7OC(CO)C(O)C(O)C7O)NC(=O)C(C(O)C7CNC(=N)N7)NC6=O)cc5)C(O)C4O)C(O)C(O)C3O2)c1 (stereo not drawn) [Example 165]
MIC Staphylococcus haemolyticus (GC 4546) (Staphylococcus sp.; strain GC 4546): 16 µg/mL (≈ 10.9 µM)
